Reference: PMC8156256, “Use of Half-Generation PAMAM Dendrimers (G0.5–G3.5) with Carboxylate End-Groups to Improve the DACHPtCl2 and 5-FU Efficacy as Anticancer Drugs” (Molecules, 2021)
Read-outs that look alike come from different tables or passages of the source.

Legend:
[1] = system: CACO-2 colorectal adenocarcinoma cells; assay: MTT cytotoxicity assay, CACO-2; format: cell-based, human; conditions: for 5-FU loaded systems MW includes the estimated number of 5-FU molecules, read-out: CACO-2 IC50 ± SD
Protocol: All cell lines were cultured in 96-well plates at a seeding density of 1 × 10^4 cells per well with a specific culture medium supplemented with 10% (v/v) fetal bovine serum (FBS) and 1% (v/v) antibiotic–antimycotic solution (AA, 100× solution) at 37 °C, in a humidified atmosphere and 5% CO2. […] After 24 h in culture, cells were incubated with the compounds under testing prepared in nuclease-free water. In all cases, 100 µL of the compound solution was used for a total volume of 200 µL in the well. The metallodendrimers cytotoxicity was evaluated using all the mentioned cell lines at the concentrations of 0.01, 0.03, 0.1, 0.5, 1, 2.5, 5, and 10 µM. Pristine anionic PAMAM dendrimers (G0.5–3.5) were used as controls. The cytotoxicity of the metallodendrimer G2.5COO(DACHPt)16/5-FU was evaluated using A2780CisR, and CACO-2 cells at the concentrations of 0.01, 0.2, 1, 5, 10 and 20 µg/mL, and G2.5(COONa)32/5-FU and free 5-FU were used as controls. After 72 h of incubation with the compounds under testing, the culture medium was replaced by new culture medium containing 10% (v/v) of a MTT (3-(4,5-dimethylthiazol-2-yl)-2,5-diphenyltetrazolium bromide) solution (0.5 mg/mL). After 3 h of incubation, the culture medium was aspirated, and the formed formazan crystals were dissolved in 100 µL of DMSO. […] Three independent experiments with three replicas each were carried out.

[2] = system: A2780CisR cisplatin-resistant ovarian cancer cells; assay: MTT cytotoxicity assay, A2780cisR; format: cell-based, human; conditions: for IC50: MTT, 72 h, for 5-FU loaded systems MW includes the estimated number of 5-FU molecules, read-out: A2780cisR IC50 ± SD; for Resistance Factor (Rf): IC50 A2780CisR / IC50 A2780
Protocol: (§1) Several human cell lines were used in the cytotoxicity evaluation studies, namely: ovarian cancer cells (A2780), cisplatin-resistant ovarian cancer cells (A2780CisR), breast cancer cells (MCF-7), colorectal adenocarcinoma cells (CACO-2), and fibroblast cells (BJ, a non-cancer cell line). All cell lines were cultured in 96-well plates at a seeding density of 1 × 10^4 cells per well with a specific culture medium supplemented with 10% (v/v) fetal bovine serum (FBS) and 1% (v/v) antibiotic–antimycotic solution (AA, 100× solution) at 37 °C, in a humidified atmosphere and 5% CO2. Specific cell culture media were as follows: the A2780 and A2780CisR cell lines were cultured in RPMI 1640 medium supplemented with L-glutamine (2 mM), and 1% (w/v) of cisplatin (100 mM) in the case of A2780CisR cells (cisplatin was only used in the subculturing process before the cytotoxicity assays); the MCF-7 cell line was cultured in RPMI 1640 medium supplemented with 1 mM sodium pyruvate, 1% (v/v) nonessential amino acids (NEAA, 100× solution), and human insulin 3.3 µg/mL; the CACO-2 cell line was cultured in MEM medium supplemented with 1% (v/v) NEAA; the BJ cell line was cultured in D-MEM medium. After 24 h in culture, cells were incubated with the compounds under testing prepared in nuclease-free water. In all cases, 100 µL of the compound solution was used for a total volume of 200 µL in the well. The metallodendrimers cytotoxicity was evaluated using all the mentioned cell lines at the concentrations of 0.01, 0.03, 0.1, 0.5, 1, 2.5, 5, and 10 µM. Pristine anionic PAMAM dendrimers (G0.5–3.5) were used as controls. The cytotoxicity of the metallodendrimer G2.5COO(DACHPt)16/5-FU was evaluated using A2780CisR, and CACO-2 cells at the concentrations of 0.01, 0.2, 1, 5, 10 and 20 µg/mL, and G2.5(COONa)32/5-FU and free 5-FU were used as controls. After 72 h of incubation with the compounds under testing, the culture medium was replaced by new culture medium containing 10% (v/v) of a MTT (3-(4,5-dimethylthiazol-2-yl)-2,5-diphenyltetrazolium bromide) solution (0.5 mg/mL). After 3 h of incubation, the culture medium was aspirated, and the formed formazan crystals were dissolved in 100 µL of DMSO. Absorbance intensity was measured at 550 nm in a microplate reader (Victor3 1420, Perkin Elmer, Waltham, MA, USA). Three independent experiments with three replicas each were carried out. The concentration that inhibited 50% of the cellular metabolic activity (IC50) was determined by linear interpolation between the two experimental points closer to the point correspondent to 50% of the control’s cellular metabolic activity. Results are presented as the mean ± standard deviation (SD).

[3] = system: red blood cells; assay: Hemotoxicity (hemolysis) assay, cyanmethemoglobin method; format: cell-based; conditions: human blood; for hemolysis percentage (release of hemoglobin): 3 h, 37 °C, 5 µM
Protocol: Human blood from healthy donors was collected in tubes containing EDTA and used to evaluate the compounds’ hemotoxicity under testing towards red blood cells by the cyanmethemoglobin method. The total hemoglobin concentration in the original blood was determined starting from a 250-fold dilution of blood in cyanmethemoglobin reagent (the C reagent was prepared in an amber bottle with 50 mg of potassium ferricyanide, 12.5 mg of potassium cyanide, and 35 mg of potassium dihydrogen phosphate in 250 mL of distilled water with 250 µL of Triton-X; its pH was adjusted to 7.4). A standard curve for hemoglobin was then prepared with hemoglobin from bovine blood (Figure S34). Briefly, a stock solution of the protein (1.5 mg/mL) was first prepared in C reagent, from which serial dilutions were performed to obtain standards of known concentration (in the range 0.20 to 1.4 mg/mL). Absorbance was then measured at 550 nm, and the C reagent was used as blank. The total hemoglobin concentration was determined using this standard curve, taking into consideration the initial dilution. For hemotoxicity evaluation of the compounds under testing, a 10% (v/v) blood solution was prepared in PBS (Mg^2+/Ca^2+ free). Then, 10 µL of this blood solution was added to several microtubes containing 70 µL of compound solution (at the concentrations 0.1, 1, and 5 µM); for controls, microtubes with 70 µL of distilled water (positive control) and 70 µL of PBS (negative control) were also prepared. After, the microtubes were incubated at 37 °C for 3 h and subsequently centrifuged at 3800 rpm for 10 min. In the end, 40 µL of each supernatant were transferred to 96-well plates, 160 µL of C reagent was added, and absorbance was measured at 550 nm. The concentration of hemoglobin in the supernatants was then determined using the same standard curve and considering the performed dilutions. The results are presented as a percentage of hemolysis (mean of three independent assays) ± standard deviation (SD). A Perkin Elmer VICTOR^3™ Multilabel Reader spectrophotometer was used in this assay.

[4] = system: A2780 ovarian cancer cells; assay: MTT cytotoxicity assay, A2780; format: cell-based, human; conditions: for IC50: MTT, 72 h, read-out: A2780 IC50 ± SD
Protocol: as §1

[5] = system: BJ fibroblast cells (non-cancer cell line); assay: MTT cytotoxicity assay, BJ; format: cell-based, human; conditions: 72 h, read-out: BJ IC50 ± SD
Protocol: Several human cell lines were used in the cytotoxicity evaluation studies, namely: ovarian cancer cells (A2780), cisplatin-resistant ovarian cancer cells (A2780CisR), breast cancer cells (MCF-7), colorectal adenocarcinoma cells (CACO-2), and fibroblast cells (BJ, a non-cancer cell line). All cell lines were cultured in 96-well plates at a seeding density of 1 × 10^4 cells per well with a specific culture medium supplemented with 10% (v/v) fetal bovine serum (FBS) and 1% (v/v) antibiotic–antimycotic solution (AA, 100× solution) at 37 °C, in a humidified atmosphere and 5% CO2. […] The metallodendrimers cytotoxicity was evaluated using all the mentioned cell lines at the concentrations of 0.01, 0.03, 0.1, 0.5, 1, 2.5, 5, and 10 µM. […] The cytotoxicity of the metallodendrimer G2.5COO(DACHPt)16/5-FU was evaluated using A2780CisR, and CACO-2 cells at the concentrations of 0.01, 0.2, 1, 5, 10 and 20 µg/mL, and G2.5(COONa)32/5-FU and free 5-FU were used as controls. […] Absorbance intensity was measured at 550 nm in a microplate reader (Victor3 1420, Perkin Elmer, Waltham, MA, USA). […]

[6] = system: MCF-7 breast cancer cells; assay: MTT cytotoxicity assay, MCF-7; format: cell-based, human; conditions: for IC50: MTT, 72 h, read-out: MCF-7 IC50 ± SD
Protocol: as §1

[7] = system: calf thymus DNA (CT-DNA); assay: DNA binding study by UV-vis spectroscopy (Benesi-Hildebrand); conditions: increasing CT-DNA 0-50 µM, 5 mM Tris-HCl/50 mM NaCl pH 7.4, 5 min incubation
Protocol: The stock solutions of DNA were directly prepared in this buffer. DNA purity was assessed by UV–vis spectroscopy using the absorbance values ratio at 260 nm and 280 nm (it should be between 1.8–1.9 to make sure it is sufficiently protein-free). […] The compounds and the CT-DNA were incubated for 5 min at room temperature. The absorbance was measured in a PerkinElmer UV–vis spectrometer Lambda equipment, using the buffer as blank. […] The intrinsic binding constant, Kb, of the compounds with DNA, was determined using the Benesi–Hildebrand equation [36]: A0/(A−A0) = εG/(εH-G − εG) + εG/(εH-G − εG) × 1/(Kb[DNA]), where Kb is the binding constant, [DNA] is the DNA concentration, A0 and A are the absorbance values of the free compound and compound–DNA complex, and εG and εH-G are their absorption coefficients, respectively. Binding constant values were then obtained from the ratio of the y-intercept to the slope in the plots A0/A−A0 vs. 1/[DNA]. Additionally, the Gibbs free energy (ΔG) associated with the process of DNA binding was calculated using the usual equation: ∆G = −RTlnKb, where T is the temperature in Kelvin and R the gas constant.

[8] = IC50 oxaliplatin / IC50 compound

Molecule | IC50 ([1]; Homo sapiens, Caco-2, 72 h) | IC50 ([2]; Homo sapiens, A2780cisR) | hemolysis at 3 h ([3]; concentrations 0.1 and 1 µg/mL) | IC50 [4] | Resistance Factor (Rf) [2] | IC50 [2] | IC50 [5] | hemolysis percentage (release of hemoglobin) [3] | IC50 [6] | Change in Absorbance [7] | IC50 ([1]; 72 h) | Selectivity Index (SI) A2780 ([4]; IC50 BJ / IC50 A2780) | Relative Potency (RP) A2780 [4, 8] | Selectivity Index (SI) A2780CisR ([2]; IC50 BJ / IC50 A2780CisR) | Relative Potency (RP) A2780CisR [2, 8] | Selectivity Index (SI) MCF-7 ([6]; IC50 BJ / IC50 MCF-7) | Relative Potency (RP) MCF-7 [6, 8]
O=c1[nH]cc(F)c(=O)[nH]1 [5-FU, 5-fluoro-1H-pyrimidine-2,4-dione] | > 154 µM | > 154 µM | ~5% |  |  |  |  |  |  |  |  |  |  |  |  |  | 
O=C1[O][Pt]2([NH][C@@H]3CCCC[C@H]3[NH]2)[O]C1=O [Oxaliplatin, [(1R,2R)-cyclohexane-1,2-diamine] (ethanedioato-O,O′)platinum(II)] |  |  |  | 0.48 ± 0.03 µM | 7.2 | 3.5 ± 0.5 µM | > 10 µM | around 12% | > 10 µM | Hyperchromism |  |  |  |  |  |  | 
trans-(R,R)-1,2-diaminocyclohexanedichloroplatinum(II) [DACHPtCl2] |  |  |  | 0.3 ± 0.2 µM | 6.2 | 1.7 ± 0.4 µM | > 9 µM | 7–10% | 5 ± 2 µM | Hyperchromism | > 10 µM | >32 | 1.7 | >5.2 | 2 | >1.7 | >1.9
